This note sets out measurements from US20030216571A1, “Tricyclic compounds” (priority 1999, published 2003).

The first data set deals with T1, Leukotriene D4 receptor (Cavia porcellus, UniProt Q2NNR5).
T1 construct: As a receptor sample, a lung cell membrane fraction from guinea pigs was used; from tissue; host or cells: lung membrane fraction of Hartley male guinea pigs
T1 sequence (Q2NNR5 1-340): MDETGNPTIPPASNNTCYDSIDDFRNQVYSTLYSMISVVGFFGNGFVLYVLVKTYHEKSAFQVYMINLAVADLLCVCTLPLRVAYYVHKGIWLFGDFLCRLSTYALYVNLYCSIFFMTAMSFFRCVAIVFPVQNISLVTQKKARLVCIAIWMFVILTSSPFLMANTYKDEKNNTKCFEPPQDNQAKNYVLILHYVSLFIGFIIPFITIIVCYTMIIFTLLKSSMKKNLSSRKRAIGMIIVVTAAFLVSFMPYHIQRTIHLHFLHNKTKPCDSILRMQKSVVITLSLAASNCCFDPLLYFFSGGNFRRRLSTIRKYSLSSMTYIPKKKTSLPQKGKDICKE
In words: Leukotriene D4 receptor binding test. The conditions noted are these: binding inhibition constant (Ki) vs [3H] LTD4 0.2 nM; lung cell membrane fraction from guinea pigs; 25° C. for 30 minutes; read-out: pKi value (converted). As to the method:
Leukotriene D4 Receptor Binding Test
As a receptor sample, a lung cell membrane fraction from guinea pigs was used. Preparation of the membrane fraction was carried out according to the method of Ahn et al. (Eur. J. Pharmacol., 127, 153-155 (1986)). Lungs of Hartley male guinea pigs (400 to 500 g body weight, Nippon SLC Co.) were extracted, and perfused with a physiological saline, and then, adding 10 mM of PIPES, 10 mM of MgCl2 and 10 mM of CaCl2 buffer (pH 7.5) to the lung tissue and the mixture was homogenized. This homogenate was centrifuged at 70,000 xg for 10 minutes to obtain a membrane fraction.
Leukotriene D4 (LTD4) recepter binding test was carried out according to the method of Aharony, et al. (J. Pharmacol. Expl.Ther., 243, 921-926 (1987)). To 0.42 mg of the receptor sample were added 10 mM of PIPES, 10 mM of MgCl2 and 10 mM of CaCl2 buffer (pH 7.5) to make the total amount of 480 μl, and 10 μl of [^3H] LTD4 (NEN Life Science Products Co.) and 10 μl of a Test compound in dimethylsulfoxide were added to the mixture, and the resulting mixture was incubated at 25° C. for 30 minutes. The mixtures thus incubated were filtered through a glass fiber filter (Whatman Co., GF/C) using cell harvester (Brandel Co., M-30R). The filter were washed with 10 mM of Tris. and 100 mM of NaCl buffer (pH 7.5), and 5 ml of a liquid scintillator (NACALAI TESQUE INC., clearsol I), and radioactivity was measured by a liquid scintillation analyzer (Packard Co., 2000CA). When a dissociation constant (Kd) of LTD4 was to be obtained, [^3H] LTD4 with 0.03 to 0.5 nM was used, and 1 μM of non-radioactive LTD4 was added. When a binding inhibition constant (Ki) of the Test compound is to be meaured, [^3H] LTD4 with 0.2 nM was used. Kd and Ki are calculated according to the method of Bennett et al. (Neurotransmitter Receptor Binding, 2nd ed., edited by H. I. Yamamura et al., pp. 61-89, Raven Press (1985)).
With `O=C(O)CCSC1c2ccccc2COc2ccc(OCc3ccc4cc(F)c(Cl)cc4n3)cc21` (stereo not shown) [Compound A, 11-(2-carboxyethyl)thio-2-(7-chloro-6-fluoro-quinolin-2-yl)methoxy-6,11-dihydrodibenz[b,e]oxepine, reference compound], the Ki was 0.316 nM.

Take `O=C([O-])CCSC1c2ccccc2COc2ccc(/C=C/c3ccc4cc(F)c(Cl)cc4n3)cc21.[Na+]` (stereo not shown) [Example 2 (b), Sodium 3-{[2-[(E)-2-(7-chloro-6-fluoro-2-quinolinyl)ethenyl]-6,11-dihydrodibenz[b,e]oxepin-11-yl]thio}propionate]: the Ki was 0.316 nM.

Turning to `C[C@@H](CSC1c2ccccc2COc2ccc(/C=C/c3ccc4c(n3)CCCC4)cc21)C(=O)[O-].[Na+]` (stereo partly drawn) [Example 26, Sodium 3-{[2-[(E)-2-(5,6,7,8-tetrahydro-2-quinolinyl)ethenyl]-6,11-dihydrodibenz[b,e]oxepin-11-yl]thio}-2-(R)-methylpropionate], the Ki is 0.316 nM.

Consider `CCC(CSC1c2ccccc2COc2ccc(/C=C/c3ccc4cc(F)c(F)cc4n3)cc21)C(=O)[O-].[Na+]` (stereo not shown) [Example 45, Sodium 3-{[2-[(E)-2-(6,7-difluoro-2-quinolinyl)ethenyl]-6,11-dihydrodibenz[b,e]oxepin-11-yl]thio}-2-ethylpropionate], for which the Ki is 0.158 nM.

For the next data set, the system named is Leukotriene D4 induced respiratory constriction. In words: Leukotriene D4 induced respiratory constriction test. It counts as in vivo. The conditions noted are these: p.o. 1 hr before i.v. LTD4; anesthetized Hartley male guinea pigs; respiratory inner pressure. The protocol:
Leukotriene D4 Induced Respiratory Constriction Test
Respiratory constriction was measured by modifying the method of Konzett and Rossler (Arch. Exp. Pathol. Pharmakol., 195, pp. 71-74 (1940)). Hartley male guinea pigs (400 to 500 g body weight, Nippon SLC Co.) were anesthetized with pentobarbital (50 mg/kg, s.c.), and a cannula was inserted into the trachea to carry out artificial ventilation with an artificial ventilator (manufactured by Harvard Co., Model 683). An inner pressure of the respiratory tract was measured by a differential pressure transducer (Nihon Koden, TP-603T) connected to the respiratory cannula and it is used as an index of respiratory constriction.
LTD4 (0.03, 0.06, 0.13, 0.25, 0.5, 1 and 2 μg/kg, Sigma Co.) was intravenously administered from a cannula inserted into the right jugular vein from a low dose with an interval of 5 minutes to cause a respiratory constriction reaction and an increased amount of a respiratory inner pressure was measured. Test compound was suspended in 0.5% sodium carboxymethyl cellulose aqueous solution, and orally administered 1 hour before administration of LTD4. Animals were fasted for 24 hours before administration of the Test compound.
A2=(Dose of Compound administered)/{(ED50 of group to which Compound was added)/(ED50 of control group)−1}
Take `O=C(O)CCSC1c2ccccc2COc2ccc(OCc3ccc4cc(F)c(Cl)cc4n3)cc21` (stereo not shown) [Compound A, 11-(2-carboxyethyl)thio-2-(7-chloro-6-fluoro-quinolin-2-yl)methoxy-6,11-dihydrodibenz[b,e]oxepine, reference compound]: the “A2 (dose of Test compound required for shifting two-times the LTD4 dose-reaction curve of control group to higher dose side)” value worked out at 16 µg/kg.

As to `O=C([O-])CCSC1c2ccccc2COc2ccc(/C=C/c3ccc4cc(F)c(Cl)cc4n3)cc21.[Na+]` (stereo not shown) [Example 2 (b), Sodium 3-{[2-[(E)-2-(7-chloro-6-fluoro-2-quinolinyl)ethenyl]-6,11-dihydrodibenz[b,e]oxepin-11-yl]thio}propionate], the “A2 (dose of Test compound required for shifting two-times the LTD4 dose-reaction curve of control group to higher dose side)” value stood at 1.7 µg/kg.

Test system in the next data set: not given
Experiment: not given
Details: not given
For orientation: melting point means the temperature of the solid-liquid transition. Regarding `O=S(=O)([O-])CCSC1c2ccccc2COc2ccc(/C=C/c3ccc4cc(F)c(F)cc4n3)cc21.[Na+]` (stereo not shown), the melting point fell in the range of 246 to 254 °C.

On to `N#Cc1cccc2c1COc1ccc(/C=C/c3ccc4cc(F)c(F)cc4n3)cc1C2SCCC(=O)O` (stereo not shown), for which the melting point was 261 to 264 °C (dec.).

For `O=C(O)CCSC1c2cc(/C=C/c3ccc4cc(F)c(Cl)cc4n3)ccc2OCc2c(F)cccc21` (stereo not shown), the melting point fell in the range of 238 to 241 °C.

`O=C(O)CC1(CSC2c3cc(/C=C/c4ccc5cc(F)c(Cl)cc5n4)ccc3OCc3c(F)cccc32)CC1` (stereo not shown) came in with a melting point of 237 to 239 °C.

Turning to `O=C([O-])CCSC1c2ccccc2COc2ccc(/C=C/c3ccc4ccc(F)cc4n3)cc21.[Na+]` (stereo not shown), the melting point lay in the range of 160 to 163 °C.

`O=C([O-])CC1(CSC2c3ccccc3COc3ccc(/C=C/c4ccc5ccc(F)cc5n4)cc32)CC1.[Na+]` (stereo not shown): the melting point lay in the range of 149 to 152 °C.

`O=C(O)CCSC1c2ccccc2COc2ccc(/C=C/c3ccc4ccc(Cl)cc4n3)cc21` (stereo not shown) displayed a melting point of 195 to 198 °C.

The molecule `O=C(O)CC1(CSC2c3ccccc3COc3ccc(/C=C/c4ccc5ccc(Cl)cc5n4)cc32)CC1` (stereo not shown) showed a melting point of 204 to 206 °C.

`O=C(O)CCSC1c2ccccc2COc2ccc(/C=C/c3ccc4c(n3)CCCC4)cc21` (stereo not shown) registered a melting point of 150 to 153 °C.

Turning to `O=C([O-])CC1(CSC2c3ccccc3COc3ccc(/C=C/c4ccc5c(n4)CCCC5)cc32)CC1.[Na+]` (stereo not shown), the melting point is 142 to 145 °C.

Molecule `O=C([O-])CCSC1c2ccccc2COc2ccc(/C=C/c3cc(Cl)c4ccccc4n3)cc21.[Na+]` (stereo not shown) registered a melting point of 140 to 142 °C.

`O=C([O-])CCSC1c2ccccc2COc2ccc(/C=C/c3ccc4c(F)cccc4n3)cc21.[Na+]` (stereo not shown) yielded a melting point of 150 to 152 °C.

For `O=C([O-])CC1(CSC2c3ccccc3COc3ccc(/C=C/c4ccc5c(F)cccc5n4)cc32)CC1.[Na+]` (stereo not shown), the melting point lay within 142 to 144 °C.

For the molecule `O=C([O-])CC1(CSC2c3ccccc3COc3ccc(/C=C/c4ccc5c(F)cc(F)cc5n4)cc32)CC1.[Na+]` (stereo not shown), the melting point was in the range of 149 to 152 °C.

With `O=C([O-])CCSC1c2ccccc2COc2ccc(/C=C/c3nc4cc(F)ccc4s3)cc21.[Na+]` (stereo not shown), the melting point was greater than 300 °C.

For the molecule `O=C([O-])CC1(CSC2c3ccccc3COc3ccc(/C=C/c4nc5cc(F)ccc5s4)cc32)CC1.[Na+]` (stereo not shown), the melting point lay within 155 to 157 °C.

In the case of `O=C([O-])CCSC1c2ccccc2COc2ccc(/C=C/c3nc4cc(F)ccc4o3)cc21.[Na+]` (stereo not shown), the melting point lay within 247 to 250 °C.

`Cc1ccc(/C=C/c2ccc3c(c2)C(SCCC(=O)[O-])c2ccccc2CO3)nc1C(C)C.[Na+]` (stereo not shown) gave a melting point of 137 to 139 °C.

Molecule `O=C([O-])CCSC1c2ccccc2CSc2ccc(/C=C/c3ccc4cc(F)c(F)cc4n3)cc21.[Na+]` (stereo not shown) gave a melting point of 144 to 148 °C.

Molecule `O=C(CSC1c2ccccc2COc2ccc(/C=C/c3ccc4cc(F)c(F)cc4n3)cc21)NS(=O)(=O)C(F)(F)F.[Na]` (stereo not shown) yielded a melting point of 182 to 186 °C.

In turn, `CS(=O)(=O)NC(=O)CCSC1c2ccccc2COc2ccc(/C=C/c3ccc4cc(F)c(F)cc4n3)cc21.[Na]` (stereo not shown) displayed a melting point of 187 to 192 °C.

Consider `COC(=O)c1ccc2c(c1)COc1ccc(/C=C/c3ccc4c(n3)CCCC4)cc1C2SCCC(=O)O` (stereo not shown), for which the melting point was 121 to 123 °C.

As for `C[C@H](CSC1c2ccccc2CCc2ccc(/C=C/c3ccc4cc(F)c(F)cc4n3)cc21)C(=O)[O-].[Na+]` (stereo partly shown), the melting point lay within 211 to 220 °C.

With `O=C([O-])CCSC1c2ccc(F)cc2COc2ccc(/C=C/c3ccc4cc(F)c(F)cc4n3)cc21.[Na+]` (stereo not shown), the melting point lay within 243 to 250 °C.

On to `O=C(O)CCSC1c2ccccc2COc2ccc(/C=C/c3ccc4cc(F)c(F)cc4n3)cc21` (stereo not shown), for which the melting point lay within 213 to 216 °C.

Take `O=C([O-])c1ccccc1SC1c2ccccc2COc2ccc(/C=C/c3ccc4cc(F)c(F)cc4n3)cc21.[Na+]` (stereo not shown) [Example 8 (b), Sodium 2-{[2-[(E)-2-(6,7-difluoro-2-quinolinyl)ethenyl]-6,11-dihydrodibenz[b,e]oxepin-11-yl]thio}benzoate]: the melting point was in the range of 183 to 186 °C.

The molecule `O=C([O-])c1cccc(SC2c3ccccc3COc3ccc(/C=C/c4ccc5cc(F)c(F)cc5n4)cc32)c1.[Na+]` (stereo not shown) [Example 9 (b), Sodium 3-{[2-[(E)-2-(6,7-difluoro-2-quinolinyl)ethenyl]-6,11-dihydrodibenz[b,e]oxepin-11-yl]thio}benzoate] registered a melting point of 184 to 188 °C.

`O=C([O-])c1ccc(SC2c3ccccc3COc3ccc(/C=C/c4ccc5cc(F)c(F)cc5n4)cc32)cc1.[Na+]` (stereo not shown) [Example 10 (b), Sodium 4-{[2-[(E)-2-(6,7-difluoro-2-quinolinyl)ethenyl]-6,11-dihydrodibenz[b,e]oxepin-11-yl]thio}benzoate]: the melting point is 285 to 287 °C (dec.).

`C[C@@H](CSC1c2ccccc2COc2ccc(/C=C/c3ccc4c(n3)CCCC4)cc21)C(=O)[O-].[Na+]` (stereo partly drawn) [Example 26, Sodium 3-{[2-[(E)-2-(5,6,7,8-tetrahydro-2-quinolinyl)ethenyl]-6,11-dihydrodibenz[b,e]oxepin-11-yl]thio}-2-(R)-methylpropionate] yielded a melting point of 168 to 173 °C.

`CC(C)(CC(=O)[O-])SC1c2ccccc2COc2ccc(/C=C/c3ccc4c(n3)CCCC4)cc21.[Na+]` (stereo not shown) [Example 27, Sodium 3-{[2-[(E)-2-(5,6,7,8-tetrahydro-2-quinolinyl)ethenyl]-6,11-dihydrodibenz[b,e]oxepin-11-yl]thio}-3-methylbutanoate] yielded a melting point of 168 to 175 °C.

The molecule `CCC(CSC1c2ccccc2COc2ccc(/C=C/c3ccc4cc(F)c(F)cc4n3)cc21)C(=O)[O-].[Na+]` (stereo not shown) [Example 45, Sodium 3-{[2-[(E)-2-(6,7-difluoro-2-quinolinyl)ethenyl]-6,11-dihydrodibenz[b,e]oxepin-11-yl]thio}-2-ethylpropionate] displayed a melting point of 209 to 218 °C.
